Assays:
MCF-7 cells = assay: Breast Cancer Cell Viability Assays (MCF-7, CellTiter-Glo); type: cell-based; conditions: 5 days' compound exposure; for IC50: Homo sapiens, MCF7, 120 h
Method in brief: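 Percent viability, background-subtracted against untreated wells, was taken from CellTiter-Glo luminescence after 5 days' exposure of MCF-7 cells. Compounds were tested at eleven semilog concentrations, final 0.3–0.000003 μM, in RPMI containing 10% FBS.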

ER-α in MCF-7 cells = target: T1, ER-α in MCF-7 cells (Homo sapiens, UniProt P03372); assay: Breast Cancer Cell ER-α In Cell Western Assay (SP1); type: cell-based; conditions: 4 or 24 hr post compound addition; for Emax: MCF7, SP1 antibody, read-out: ER-α In Cell Western Assay (SP1) Max Response; for DC50: SP1 antibody, read-out: ER-α In Cell Western Assay (SP1) IC50
T1 construct: endogenous in cells; host or cells: MCF-7
T1 sequence (P03372 1-595): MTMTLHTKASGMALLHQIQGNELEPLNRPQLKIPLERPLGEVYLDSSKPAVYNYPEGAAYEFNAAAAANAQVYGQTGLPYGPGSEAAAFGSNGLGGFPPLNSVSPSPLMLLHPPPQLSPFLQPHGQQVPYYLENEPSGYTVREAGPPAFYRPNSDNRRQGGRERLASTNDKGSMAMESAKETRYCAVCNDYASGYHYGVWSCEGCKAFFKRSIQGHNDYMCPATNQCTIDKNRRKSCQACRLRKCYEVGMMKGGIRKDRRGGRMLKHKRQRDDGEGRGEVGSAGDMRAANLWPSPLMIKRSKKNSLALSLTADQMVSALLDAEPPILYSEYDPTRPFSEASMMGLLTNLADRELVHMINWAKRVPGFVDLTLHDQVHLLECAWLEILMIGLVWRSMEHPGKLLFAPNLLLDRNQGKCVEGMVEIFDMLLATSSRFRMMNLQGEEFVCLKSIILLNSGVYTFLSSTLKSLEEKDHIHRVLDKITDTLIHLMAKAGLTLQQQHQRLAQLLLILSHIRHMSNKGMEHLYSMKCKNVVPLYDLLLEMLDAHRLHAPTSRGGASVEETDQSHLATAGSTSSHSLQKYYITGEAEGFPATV
Method in brief: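 ER-α levels quantified by in-cell western: SP1 signal normalised to DRAQ5 DNA stain, relative to untreated cells (% ER). Compounds at 0.3–0.000003 μM final, 11-point semilog series, 4 or 24 h exposure of MCF-7 cells grown in charcoal-stripped serum.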

Compound	MCF7 Viability Assay Max Response (MCF-7 cells)	IC50 (MCF-7 cells) [nM]	Emax (ER-α in MCF-7 cells) [%]	DC50 (ER-α in MCF-7 cells) [nM]
COc1ccc(/C(=C(\c2ccc(/C=C/c3noc(=O)[nH]3)cc2)c2ccc3scnc3c2)C2CCC2)c(Cl)c1 [Example 278, 3-((E)-4-((E)-1-(Benzo[d]thiazol-5-yl)-2-(2-chloro-4-methoxyphenyl)-2-cyclobutylvinyl)styryl)-1,2,4-oxadiazol-5(4H)-one]	++ (++ = a single % value ≧ 40%)	≤ 100	≥ 40	≤ 100
CC/C(=C(/c1ccc(/C=C/C(=O)O)cc1)c1ccc2[nH]ncc2c1)c1ccc(C(N)=O)cc1F [Example 211, (E)-3-(4-((E)-2-(4-Carbamoyl-2-fluorophenyl)-1-(1H-indazol-5-yl)but-1-en-1-yl)phenyl)acrylic acid]	+ (+ = a single % value < 40%)	> 100	≥ 40	> 100
CC/C(=C(/c1ccc(/C=C/C(=O)O)cc1)c1ccc2[nH]ncc2c1C#N)c1ccccc1 [Example 3, (E)-3-(4-((E)-1-(4-Cyano-1H-indazol-5-yl)-2-phenylbut-1-en-1-yl)phenyl)acrylic acid]	++ (++ = a single % value ≧ 40%)	≤ 100	≥ 40	≤ 100
O=C(O)/C=C/c1ccc(/C(=C(\c2ncccc2Cl)C2CCC2)c2ccc3[nH]nc(F)c3c2)cc1 [Example 143, (E)-3-(4-((E)-2-(3-Chloropyridin-2-yl)-2-cyclobutyl-1-(3-fluoro-1H-indazol-5-yl)vinyl)phenyl)acrylic acid]	++ (++ = a single % value ≧ 40%)	≤ 100	≥ 40	≤ 100
COc1ccc(/C(=C(\c2ccc(/C=C/C(=O)O)cc2)c2ccc3scnc3c2)C2CCC2)c(Cl)c1 [Example 232, (E)-3-(4-((E)-1-(Benzo[d]thiazol-5-yl)-2-(2-chloro-4-methoxyphenyl)-2-cyclobutylvinyl)phenyl)acrylic acid]	++ (++ = a single % value ≧ 40%)	≤ 100	≥ 40	≤ 100
Cc1cccnc1/C(=C(\c1ccc(/C=C/C(=O)O)cc1)c1ccc2scnc2c1)C1CCC1 [Example 98, (E)-3-(4-((E)-1-(Benzo[d]thiazol-5-yl)-2-cyclobutyl-2-(3-methylpyridin-2-yl)vinyl)phenyl)acrylic acid]	++ (++ = a single % value ≧ 40%)	≤ 100	≥ 40	≤ 100
CC/C(=C(/c1ccc(/C=C/C(=O)O)cc1)c1ccc2[nH]nc(F)c2c1)c1ccc(OC)cc1C [Example 63, (E)-3-(4-((E)-1-(3-Fluoro-1H-indazol-5-yl)-2-(4-methoxy-2-methylphenyl)but-1-en-1-yl)phenyl)acrylic acid]	++ (++ = a single % value ≧ 40%)	≤ 100	≥ 40	≤ 100
CC/C(=C(/c1ccc(/C=C/C(=O)O)cc1)c1ccc2[nH]nc(F)c2c1)c1ccc(Oc2cnc(S(C)(=O)=O)cn2)cc1 [Example 59, (E)-3-(4-((E)-1-(3-Fluoro-1H-indazol-5-yl)-2-(4-((5-(methylsulfonyl)pyrazin-2-yl)oxy)phenyl)but-1-en-1-yl)phenyl)acrylic acid]	++ (++ = a single % value ≧ 40%)	≤ 100	≥ 40	≤ 100
N#Cc1c(/C(=C(/c2ccc(F)cc2Cl)C2CCC2)c2ccc(/C=C/C(=O)O)cc2)ccc2nccn12 [Example 224, (E)-3-(4-((E)-2-(2-Chloro-4-fluorophenyl)-1-(5-cyanoimidazo[1,2-a]pyridin-6-yl)-2-cyclobutylvinyl)phenyl)acrylic acid]	++ (++ = a single % value ≧ 40%)	≤ 100	≥ 40	≤ 100
O=C(O)/C=C/c1ccc(/C(=C(\c2cccc(N3CCCC3)c2)C2CCC2)c2ccc3[nH]nc(F)c3c2)cc1 [Example 87, (E)-3-(4-((E)-2-Cyclobutyl-1-(3-fluoro-1H-indazol-5-yl)-2-(3-(pyrrolidin-1-yl)phenyl)vinyl)phenyl)acrylic acid]	++ (++ = a single % value ≧ 40%)	≤ 100	≥ 40	≤ 100
Cc1cc(C#N)ccc1/C(=C(\c1ccc(/C=C/C(=O)O)cc1)c1ccc2[nH]nc(F)c2c1)C1CC1 [Example 118, (E)-3-(4-((E)-2-(4-Cyano-2-methylphenyl)-2-cyclopropyl-1-(3-fluoro-1H-indazol-5-yl)vinyl)phenyl)acrylic acid]	++ (++ = a single % value ≧ 40%)	≤ 100	≥ 40	≤ 100
O=C(O)/C=C/c1ccc(/C(=C(\c2ccccc2)C2CCC2)c2ccc3[nH]nc(F)c3c2)c(Cl)c1 [Example 166, (E)-3-(3-Chloro-4-((Z)-2-cyclobutyl-1-(3-fluoro-1H-indazol-5-yl)-2-phenylvinyl)phenyl)acrylic acid]	++ (++ = a single % value ≧ 40%)	≤ 100	≥ 40	≤ 100
CC/C(=C(/c1ccc(/C=C/C(=O)Nc2nccs2)cc1)c1ccc2[nH]ncc2c1)c1ccc(F)cc1Cl [Example 185, (E)-3-(4-((E)-2-(2-Chloro-4-fluorophenyl)-1-(1H-indazol-5-yl)but-1-en-1-yl)phenyl)-N-(thiazol-2-yl)acrylamide]	++ (++ = a single % value ≧ 40%)	≤ 100	≥ 40	≤ 100
COc1cc(C)c(/C(=C(\c2ccc(/C=C/C(=O)O)cc2)c2ccc3[nH]nc(F)c3c2)C2CC2)cn1 [Example 116, (E)-3-(4-((E)-2-Cyclopropyl-1-(3-fluoro-1H-indazol-5-yl)-2-(6-methoxy-4-methylpyridin-3-yl)vinyl)phenyl)acrylic acid]	++ (++ = a single % value ≧ 40%)	≤ 100	≥ 40	≤ 100
O=C(O)/C=C/c1ccc(/C(=C(\c2ccccc2)C2CCC2)c2ccc3[nH]ncc3c2Cl)cc1 [Example 2, (E)-3-(4-((E)-1-(4-Chloro-1H-indazol-5-yl)-2-cyclobutyl-2-phenylvinyl)phenyl)acrylic acid]	++ (++ = a single % value ≧ 40%)	≤ 100	≥ 40	≤ 100
Cc1cccnc1/C(=C(\c1ccc(/C=C/C(=O)O)cc1)c1ccc2[nH]nc(F)c2c1)C1CCC1 [Example 144, (E)-3-(4-((E)-2-Cyclobutyl-1-(3-fluoro-1H-indazol-5-yl)-2-(3-methylpyridin-2-yl)vinyl)phenyl)acrylic acid]	++ (++ = a single % value ≧ 40%)	≤ 100	≥ 40	≤ 100
Cc1cc(S(C)(=O)=O)ccc1/C(=C(\c1ccc(/C=C/C(=O)O)cc1)c1ccc2[nH]nc(F)c2c1)C1CCC1 [Example 195, (E)-3-(4-((E)-2-Cyclobutyl-1-(3-fluoro-1H-indazol-5-yl)-2-(2-methyl-4-(methylsulfonyl)phenyl)vinyl)phenyl)acrylic acid]	++ (++ = a single % value ≧ 40%)	≤ 100	≥ 40	≤ 100
N#Cc1cccnc1/C(=C(\c1ccc(/C=C/C(=O)O)cc1)c1ccc2[nH]nc(F)c2c1)C1CCC1 [Example 247, (E)-3-(4-((E)-2-(3-Cyanopyridin-2-yl)-2-cyclobutyl-1-(3-fluoro-1H-indazol-5-yl)vinyl)phenyl)acrylic acid]	++ (++ = a single % value ≧ 40%)	≤ 100	≥ 40	≤ 100
Fc1n[nH]c2ccc(/C(=C(/c3ccncc3Cl)C3CCC3)c3ccc(/C=C/c4nnn[nH]4)cc3)cc12 [Example 172, 5-((E)-1-(4-((E)-2-(2H-Tetrazol-5-yl)vinyl)phenyl)-2-(3-chloropyridin-4-yl)-2-cyclobutylvinyl)-3-fluoro-1H-indazole]	++ (++ = a single % value ≧ 40%)	≤ 100	≥ 40	≤ 100
COc1ccc(/C(=C(\c2ccc(/C=C/C(=O)O)cc2)c2ccc3[nH]ncc3c2)C2CCC2)c(Cl)c1 [Example 216, (E)-3-(4-((E)-2-(2-Chloro-4-methoxyphenyl)-2-cyclobutyl-1-(1H-indazol-5-yl)vinyl)phenyl)acrylic acid]	++ (++ = a single % value ≧ 40%)	≤ 100	≥ 40	≤ 100
